Key:
Gal4DBD/AaEcR (DEF) = target: T1, Gal4DBD/AaEcR (DEF) (Aedes aegypti, UniProt P49880); assay: cell-based; assay type: cell-based; details: 33 μM; 3T3 cells; 48 h; average of two wells
T1 construct: The wildtype D, E, and F domains from mosquito Aedes aegypti EcR; expressed in transfected cells; host or cells: 3T3 cells
Procedure, shortened: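 Mouse 3T3 cells transiently co-transfected with Gal4DBD/AaEcR (DEF) and pFRLuc (5× GAL4 response element, firefly luciferase reporter). Ligand added in serum medium 4 h after transfection; single-dose testing at 33 μM.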

CfEcR + LmUSP = CfEcR + LmUSP in 3T3 cells, reporter assayed 48 h after ligand
Description: 1.9—Gal4CfEcR-DEF/VP16LmRXR-EF: This construct was prepared in the same way as switch 1.1 except LmRXR-EF (SEQ ID NO: 18) was used in place of HsRXRβ-LmRXREF chimera.
(§1) To determine if any of the compounds shown in Table 1 and Table 2 can act as inducers of reporter gene activity in a transactivation assay, these compounds were tested in NIH3T3 cells transfected with pFRLUC reporter and gene expression cassettes, 1.1 to 1.8 described in Example 1. […] At 48 hr after adding ligand, the cells were harvested and reporter activity was assayed using Dual Luciferase assay kit (Promega carporation). Total relative light units (RLU) are shown. Standard methods for culture and maintenance of the cells were followed.
(§2) Transfections: DNAs corresponding to the various switch constructs outlined in Example I, specifically switches 1.1 through 1.8, were transfected into mouse NIH3T3 cells (ATCC) as follows. Cells were harvested when they reached 50% confluency and plated in 6-, 12- or 24-well plates at 125,000, 50,000, or 25,000 cells, respectively, in 2.5, 1.0, or 0.5 ml of growth medium containing 10% fetal bovine serum (FBS), respectively. The next day, the cells were rinsed with growth medium and transfected for four hours. […] For 12-well plates, 4 μl of Superfect™ was mixed with 100 μl of growth medium. 1.0 μg of reporter construct and 0.25 μg of each receptor construct of the receptor pair to be analyzed were added to the transfection mix. A second reporter construct was added [pTKRL (Promega), 0.1 μg/transfection mix] that comprises a Renilla luciferase gene operably linked and placed under the control of a thymidine kinase (TK) constitutive promoter and was used for normalization. The contents of the transfection mix were mixed in a vortex mixer and let stand at room temperature for 30 min. At the end of incubation, the transfection mix was added to the cells maintained in 400 μl growth medium. The cells were maintained at 37° C. and 5% CO2 for four hours. At the end of incubation, 500 μl of growth medium containing 20% FBS and either dimethylsulfoxide (DMSO; control) or a DMSO solution of 0.1, 1, and 10 μM ligand was added and the cells were maintained at 37° C. and 5% CO2 for 48 hours. The cells were harvested and reporter activity was assayed. The same procedure was followed for 6 and 24 well plates as well except all the reagents were doubled for 6 well plates and reduced to half for 24-well plates.
(§3) Ligands: All ligands were dissolved in DMSO and the final concentration of DMSO was maintained at 0.1% in both controls and treatments.
(§4) Reporter Assays: Cells were harvested 48 hours after adding ligands. 125, 250, or 500 μl of passive lysis buffer (part of Dual-luciferase™ reporter assay system from Promega Corporation) were added to each well of 24- or 12- or 6-well plates respectively. The plates were placed on a rotary shaker for 15 minutes. Twenty μl of lysate were assayed. Luciferase activity was measured using Dual-luciferase™ reporter assay system from Promega Corporation following the manufacturer's instructions.

DmEcR + LmUSP = target: T2, DmEcR + LmUSP (Drosophila melanogaster, UniProt P34021); details: DmEcR + LmUSP in 3T3 cells, reporter assayed 48 h after ligand
T2 sequence (P34021 342-878): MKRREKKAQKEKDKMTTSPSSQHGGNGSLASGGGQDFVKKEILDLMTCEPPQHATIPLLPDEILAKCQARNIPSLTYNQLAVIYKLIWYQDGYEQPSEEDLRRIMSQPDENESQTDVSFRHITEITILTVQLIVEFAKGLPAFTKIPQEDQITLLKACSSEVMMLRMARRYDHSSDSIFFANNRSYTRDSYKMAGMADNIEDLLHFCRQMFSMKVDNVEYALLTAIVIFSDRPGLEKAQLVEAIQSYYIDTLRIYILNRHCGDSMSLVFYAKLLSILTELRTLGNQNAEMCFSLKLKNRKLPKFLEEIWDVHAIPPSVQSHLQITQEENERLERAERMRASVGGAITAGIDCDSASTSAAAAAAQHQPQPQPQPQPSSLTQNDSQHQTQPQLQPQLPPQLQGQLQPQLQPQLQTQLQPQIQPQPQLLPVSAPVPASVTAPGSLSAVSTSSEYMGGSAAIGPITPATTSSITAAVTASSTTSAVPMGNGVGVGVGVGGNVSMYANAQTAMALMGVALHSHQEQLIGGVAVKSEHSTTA
Description: as §1, §2, §3, §4

[1] = target: T3, Bombyx mori EcR (VP16-BmEcR, CVBE) (Bombyx mori, UniProt P49881); assay: Z3 assay (HEK-293 clone Z3 with CVBE and 6x EcRE LacZ, β-galactosidase reporter); assay type: cell-based; details: 48 h, average of two wells
T3 construct: expressed in transfected cells
T3 sequence (P49881 86-606): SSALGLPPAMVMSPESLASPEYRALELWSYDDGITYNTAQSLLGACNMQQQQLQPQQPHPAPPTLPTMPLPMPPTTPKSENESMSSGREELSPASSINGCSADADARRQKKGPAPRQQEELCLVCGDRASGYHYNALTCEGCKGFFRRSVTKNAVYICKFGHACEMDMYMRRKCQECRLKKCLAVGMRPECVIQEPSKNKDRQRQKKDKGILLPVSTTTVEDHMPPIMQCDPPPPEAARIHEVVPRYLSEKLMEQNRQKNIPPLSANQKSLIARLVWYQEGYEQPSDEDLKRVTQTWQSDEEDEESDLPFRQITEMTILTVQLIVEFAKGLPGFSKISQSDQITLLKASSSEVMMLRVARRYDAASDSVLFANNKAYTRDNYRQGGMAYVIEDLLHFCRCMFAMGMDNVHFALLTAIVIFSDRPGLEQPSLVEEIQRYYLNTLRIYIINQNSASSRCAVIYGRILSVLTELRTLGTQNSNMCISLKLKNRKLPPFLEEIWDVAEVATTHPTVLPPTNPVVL

[2] = test system: GAL4 DBD-CfEcR(DEF)/VP16AD-MmRXRE; details: CHO 13B3 clone, 48 h, average of two wells
Description: GAL4 DBD-CfEcR(DEF)/VP16AD-MmRXRE: The wild-type D, E, and F domains from spruce budworm Choristoneura fumiferana EcR (“CfEcR-DEF”; SEQ ID NO: 1) were fused to a GAL4 DNA binding domain (“Gal4DBD1-147”; nucleotides 31 to 471 of SEQ ID NO: 2) and placed under the control of the SV40e promoter of pM vector (PT3119-5, Clontech, Palo Alto, Calif.). The D and E domains from Mus Musculus RXR (“MmRXR-DE”; SEQ ID NO: 22) were fused to the transactivation domain from VP16 (“VP16AD”; SEQ ID NO: 5) and placed under the control of the SV40e promoter of the pVP16 vector (PT3127-5, Clontech, Palo Alto, Calif.).
CHO cells were transiently transfected with transcription cassettes for GAL4 DBD-CfEcR(DEF) and for VP16AD-MmRXRE controlled by SV40e promoters. Stably transfected cells were selected using Hygromycin. Individually isolated CHO cell clones were transiently transfected with a GAL4 RE-luciferase reporter (pFR-Luc, Stratagene, La Jolla, Calif.). The 13B3 clone was selected using Zeocin.
Cells were trypsinized and diluted to a concentration of 2.5×10^4 cells mL. 100 μL of cell suspension was placed in each well of a 96 well plate and incubated at 37° C. under 5% CO2 for 24 h. Ligand stock solutions were prepared in DMSO and diluted 300 fold for all treatments.
Luciferase reporter gene expression was measured 48 h after cell treatment using Bright-Glo™ Luciferase Assay System from Promega (E2650). Luminescence was detected at room temperature using a Dynex MLX microtiter plate luminometer.
Each assay was conducted in two separate wells, and the two values were averaged. Fold inductions were calculated by dividing relative light units (“RLU”) in ligand treated cells with RLU in DMSO treated cells.

T1 sequence (P28704 286-520 A311G/G315S/G445S/I449V): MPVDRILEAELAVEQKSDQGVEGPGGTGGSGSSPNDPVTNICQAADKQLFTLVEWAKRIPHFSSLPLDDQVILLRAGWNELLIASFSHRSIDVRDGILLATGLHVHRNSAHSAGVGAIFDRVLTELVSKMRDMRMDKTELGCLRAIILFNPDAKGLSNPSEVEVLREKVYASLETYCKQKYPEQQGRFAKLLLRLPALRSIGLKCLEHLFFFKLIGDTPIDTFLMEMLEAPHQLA
T1 sequence (P49880 405-776): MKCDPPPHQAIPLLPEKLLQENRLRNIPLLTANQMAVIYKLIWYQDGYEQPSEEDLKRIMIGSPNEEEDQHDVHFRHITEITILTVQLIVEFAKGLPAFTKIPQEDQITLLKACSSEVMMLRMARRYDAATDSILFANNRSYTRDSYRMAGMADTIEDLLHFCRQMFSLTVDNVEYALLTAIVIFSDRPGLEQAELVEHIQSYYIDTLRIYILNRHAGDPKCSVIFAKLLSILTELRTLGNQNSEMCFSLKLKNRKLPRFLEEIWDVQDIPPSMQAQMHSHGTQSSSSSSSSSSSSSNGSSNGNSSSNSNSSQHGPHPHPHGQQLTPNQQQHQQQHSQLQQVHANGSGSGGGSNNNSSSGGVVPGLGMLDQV

SMILES | Fold Induction Average, AA_3T3V1 Assay 33 μM (Gal4DBD/AaEcR (DEF)) | Fold Induction (10 μM) (CfEcR + LmUSP) | Fold Induction (10 μM) (DmEcR + LmUSP) | Fold Induction (100 μM) (DmEcR + LmUSP) | Fold Induction Average, Z3V1 Assay 33 μM [1] | Fold Induction Average, 13B3V1 Assay 33 μM [2]
C[C@H]1C[C@@H](Nc2ccc(F)cc2)c2cc(F)ccc2N1C(=O)c1ccc(F)cc1 (relative stereo) [Compound I-8] | 153 fold | 3 fold | 2 fold | 7 fold | – | –
C[C@H]1C[C@H](Nc2ccc(F)cc2)c2cc(F)ccc2N1C(=O)c1ccc(F)cc1 (relative stereo) [Compound I-9] | 131 fold | 3 fold | 9 fold | 2 fold | 16 fold | –
C[C@H]1C[C@@H](Nc2ccc(F)cc2)c2cc(F)ccc2N1C(=O)c1ccccc1 (relative stereo) [Compound I-10] | 164 fold | 1 fold | 1 fold | 1 fold | – | –
C[C@H]1C[C@H](Nc2ccc(F)cc2)c2cc(F)ccc2N1C(=O)c1ccccc1 (relative stereo) [Compound I-11] | 387 fold | 1 fold | 5 fold | 3 fold | 32 fold | –
COc1ccc(C=CC(=O)N2c3ccccc3[C@@H](Nc3ccccc3)C[C@@H]2C)cc1OC (relative stereo) [Compound I-146] | 4 fold | – | – | – | 1 fold | 1 fold
COc1ccc(C(=O)N2c3ccc(C)cc3[C@H](Nc3ccc(C)cc3)C[C@@H]2C)cc1 (stereo in doubt) [Compound I-152] | 1 fold | – | – | – | 1 fold | 2 fold
Cc1ccc(NC2CC(C)N(C(=O)c3ccc4c(c3)OCO4)c3ccc(C)cc32)cc1 (stereo not drawn) [Compound I-34] | 1 fold | – | – | – | 1 fold | 1 fold
COc1cccc(C(=O)N2c3ccccc3C(Nc3ccccc3)CC2C)c1C (stereo not drawn) [Compound I-50] | 21 fold | – | – | – | 115 fold | 1 fold
COc1cccc(C(=O)N2c3ccc(F)cc3C(Nc3ccc(F)cc3)CC2C)c1C (stereo not drawn) [Compound I-58] | 124 fold | – | – | – | 147 fold | 30 fold
CC(=O)N(c1ccccc1)C1CC(C)N(C(=O)C=Cc2ccccc2)c2ccccc21 (stereo not drawn) [Compound I-119] | 1 fold | – | – | – | 1 fold | 3 fold
COc1ccc(C(=O)N2c3ccccc3C(N(C(=O)c3cccs3)c3ccccc3)CC2C)cc1 (stereo not drawn) [Compound I-131] | 162 fold | – | – | – | 4 fold | 1 fold
CCCCCc1ccc(C(=O)N2c3ccccc3C(Nc3ccccc3)CC2C)cc1 (stereo not drawn) [Compound I-138] | 5 fold | – | – | – | 1 fold | 1 fold
COc1cccc(N(C(C)=O)C2CC(C)N(C(=O)c3ccccc3)c3ccccc32)c1 (stereo not drawn) [Compound I-140] | 1 fold | – | – | – | 1 fold | 2 fold
Cc1ccc(NC2CC(C)N(C(=O)c3ccc(Cl)cc3)c3ccc(C)cc32)cc1 (stereo not drawn) [Compound I-144] | 73 fold | – | – | – | 1 fold | 4 fold
CC1CC(Nc2ccccc2)c2ccccc2N1C(=O)c1cccc(Br)c1 (stereo not drawn) [Compound I-148] | 47 fold | – | – | – | 19 fold | 1 fold
Cc1ccc(NC2CC(C)N(C(=O)c3cccc([N+](=O)[O-])c3)c3ccc(C)cc32)cc1 (stereo not drawn) [Compound I-154] | 1 fold | – | – | – | 1 fold | 4 fold
CC1CC(N(C(=O)C2CC2)c2ccccc2)c2ccccc2N1C(=O)C1CC1 (stereo not drawn) [Compound I-155] | 1 fold | – | – | – | 1 fold | 1 fold
CC1CC(Nc2ccccc2)c2ccccc2N1C(=O)c1cccc([N+](=O)[O-])c1 (stereo not drawn) [Compound I-158] | 207 fold | – | – | – | 18 fold | 118 fold
CC1CC(Nc2ccccc2)c2ccccc2N1C(=O)C=Cc1ccccc1 (stereo not drawn) [Compound I-163] | 4 fold | – | – | – | 27 fold | 26 fold
CC1CC(N(C(=O)c2cccc(Br)c2)c2ccccc2)c2ccccc2N1C(=O)c1cccc(O)c1 (stereo not drawn) [Compound I-166] | 58 fold | – | – | – | 1 fold | 2 fold
CCCc1ccc(C(=O)N2c3ccccc3C(Nc3ccccc3)CC2C)cc1 (stereo not drawn) [Compound I-173] | 172 fold | – | – | – | 3 fold | 1 fold
CC1CC(Nc2ccccc2)c2ccccc2N1C(=O)COc1ccc(Cl)cc1 (stereo not drawn) [Compound I-180] | 9 fold | – | – | – | 1 fold | 1 fold

Source: patent US20050228016A1, “TETRAHYDROQUINOLINES FOR MODULATING THE EXPRESSION OF EXOGENOUS GENES VIA AN ECDYSONE RECEPTOR COMPLEX” (priority 2002, published 2005)
